Organism: Rattus norvegicus
Assay: Open TG-GATES - Regimen: Daily Repeat
Type: toxicity, organism-based, Sprague-Dawley
Set-up: regimen Daily Repeat, gender Male, age 6 weeks
Settings: in vivo, po, route gavage; for KIDNEY_L / KIDNEY_R / KIDNEY_TOTAL: tissue Kidney; for ALP / ALT / AST / BUN / CRE / DBIL / IP / K / LDH / Na / PL / RALB / TBIL / TC / TG / TP / gamma-GTP / Ca: tissue Plasma; for LIVER: tissue Liver
[1] = 40 mg/kg, 72 h, tissue Blood, dose level Low, time 3 day
[2] = 40 mg/kg, 72 h, dose level Low, time 3 day
[3] = 40 mg/kg, […], dose level Low, time 7 day
[4] = 40 mg/kg, […], dose level Low, time 14 day
[5] = 40 mg/kg, […], dose level Low, time 28 day
[6] = 40 mg/kg, […], tissue Blood, dose level Low, time 7 day
[7] = 40 mg/kg, […], tissue Blood, dose level Low, time 14 day
[8] = 40 mg/kg, […], tissue Blood, dose level Low, time 28 day
[9] = 120 mg/kg, 72 h, tissue Blood, dose level Middle, time 3 day

CCC(C)(C)C(=O)O[C@H]1C[C@@H](C)C=C2C=C[C@H](C)[C@H](CC[C@@H]3C[C@@H](O)CC(=O)O3)[C@H]21 [SIMVASTATIN]
Fbg [1]: 222.8 mg/dL | Hb [1]: 13.6 g/dL | Ht [1]: 41.1% | Lym [1]: 77% | MCHC [1]: 33.2% | Mono [1]: 8.6% | Neu [1]: 13.6% | Plat [1]: 125.7 x10_4/uL | RBC [1]: 639.6 x10_4/ul | Ret [1]: 5.1% | WBC [1]: 97.1 x10_2/uL | KIDNEY_L [2]: 0.9 g | KIDNEY_R [2]: 1 g | KIDNEY_TOTAL [2]: 1.9 g | ALP [2]: 959.2 IU/L | ALT [2]: 40.6 IU/L | AST [2]: 67 IU/L | BUN [2]: 18 mg/dL | CRE [2]: 0.5 mg/dL | DBIL [2]: 0.004 mg/dL | IP [2]: 7.1 mg/dL | K [2]: 4.4 meq/L | LDH [2]: 102.4 IU/L | Na [2]: 140 meq/L | PL [2]: 148.4 mg/dL | RALB [2]: 3.8 g/dL | TBIL [2]: 0.3 mg/dL | TC [2]: 88.2 mg/dL | TG [2]: 69.6 mg/dL | TP [2]: 5.6 g/dL | gamma-GTP [2]: 1.8 IU/L | TERMINAL_BW [3]: 254.5 g | TERMINAL_BW [4]: 301.6 g | TERMINAL_BW [5]: 380.4 g | Bas [6]: 0% | Eos [6]: 0.6% | Fbg [6]: 232.4 mg/dL | Hb [6]: 13.3 g/dL | Ht [6]: 39.9% | Lym [6]: 83% | MCHC [6]: 33.2% | Mono [6]: 6% | PT [6]: 11 s | Plat [6]: 120.4 x10_4/uL | RBC [6]: 619.6 x10_4/ul | Ret [6]: 4.2% | WBC [6]: 123 x10_2/uL | Bas [7]: 0% | Eos [7]: 0.6% | Fbg [7]: 219.4 mg/dL | Hb [7]: 13.9 g/dL | Ht [7]: 41.7% | Lym [7]: 81.6% | MCHC [7]: 33.3% | Mono [7]: 5.6% | Neu [7]: 12.4% | Plat [7]: 119.7 x10_4/uL | RBC [7]: 675.8 x10_4/ul | Ret [7]: 5.3% | WBC [7]: 121.7 x10_2/uL | Bas [8]: 0% | Eos [8]: 1.2% | Fbg [8]: 244.4 mg/dL | Hb [8]: 14.8 g/dL | Ht [8]: 44.7% | Lym [8]: 81% | MCHC [8]: 33% | MCV [8]: 58.3 fL | Mono [8]: 6.4% | Neu [8]: 11.6% | Plat [8]: 111 x10_4/uL | RBC [8]: 766.6 x10_4/ul | Ret [8]: 2.3% | WBC [8]: 112.3 x10_2/uL | KIDNEY_L [3]: 1.1 g | KIDNEY_R [3]: 1.1 g | KIDNEY_TOTAL [3]: 2.2 g | KIDNEY_L [4]: 1.2 g | KIDNEY_R [4]: 1.2 g | KIDNEY_TOTAL [4]: 2.4 g | KIDNEY_L [5]: 1.4 g | KIDNEY_R [5]: 1.4 g | KIDNEY_TOTAL [5]: 2.8 g | LIVER [3]: 12.5 g | LIVER [4]: 13.6 g | LIVER [5]: 16.5 g | ALP [3]: 877.6 IU/L | ALT [3]: 38.4 IU/L | AST [3]: 60.8 IU/L | BUN [3]: 20.6 mg/dL | CRE [3]: 0.6 mg/dL | Ca [3]: 11 mg/dL | DBIL [3]: 0 mg/dL | IP [3]: 6.9 mg/dL | K [3]: 4.9 meq/L | LDH [3]: 112.2 IU/L | Na [3]: 141.4 meq/L | PL [3]: 155 mg/dL | RALB [3]: 3.8 g/dL | TBIL [3]: 0.3 mg/dL | TG [3]: 99.2 mg/dL | TP [3]: 5.9 g/dL | gamma-GTP [3]: 1.8 IU/L | ALP [4]: 819.8 IU/L | ALT [4]: 37 IU/L | AST [4]: 61.4 IU/L | BUN [4]: 20 mg/dL | CRE [4]: 0.6 mg/dL | Ca [4]: 10.8 mg/dL | DBIL [4]: 0.006 mg/dL | IP [4]: 7.1 mg/dL | K [4]: 4.7 meq/L | LDH [4]: 82 IU/L | Na [4]: 140.8 meq/L | PL [4]: 145.6 mg/dL | RALB [4]: 3.9 g/dL | TBIL [4]: 0.3 mg/dL | TC [4]: 76.6 mg/dL | TG [4]: 118.4 mg/dL | TP [4]: 5.9 g/dL | gamma-GTP [4]: 1.8 IU/L | ALP [5]: 751.6 IU/L | ALT [5]: 34.2 IU/L | AST [5]: 60.4 IU/L | BUN [5]: 20.6 mg/dL | CRE [5]: 0.7 mg/dL | DBIL [5]: 0.024 mg/dL | IP [5]: 6.8 mg/dL | K [5]: 4.3 meq/L | LDH [5]: 113.6 IU/L | Na [5]: 143.2 meq/L | PL [5]: 163 mg/dL | RALB [5]: 4 g/dL | TBIL [5]: 0.3 mg/dL | TC [5]: 78.2 mg/dL | TG [5]: 165.2 mg/dL | TP [5]: 6.2 g/dL | gamma-GTP [5]: 1.4 IU/L | TERMINAL_BW (120 mg/kg, 72 h, dose level Middle, time 3 day): 215.2 g | Bas [9]: 0% | Eos [9]: 1% | Fbg [9]: 217.2 mg/dL | Hb [9]: 13.6 g/dL

Source: ChEMBL document CHEMBL3885861, “Open TG-GATES”
